# Data reported in patent US8957064B2, “Fused pyrimidines” (Bayer Intellectual Property GmbH, priority 2009, dated 2015).
# Legend:
# [1] = molecular target: His-tagged human recombinant kinase full-length Akt2 activated by PDK1 (Homo sapiens (Human), UniProt P31751); experiment: Akt2 kinase assay (Akt2 TR-FRET assay, Biological Assay 2.0); type: biochemical; details: 10 μM ATP, 1 μM biotinylated peptide substrate, 60 min at 22° C.
# From the text: Biological Assay 2.0: Akt2 Kinase Assay
# Akt2 inhibitory activity of compounds of the present invention was quantified employing the Akt2 TR-FRET assay as described in the following paragraphs.
# (§1) His-tagged human recombinant kinase full-length Akt2 expressed in insect cells and activated by PDK1 was purchased form Invitrogen (part number PV 3975). As substrate for the kinase reaction the biotinylated peptide biotin-Ahx-KKLNRTLSFAEPG (C-terminus in amide form) was used which can be purchased e.g. from the company Biosynthan GmbH (Berlin-Buch, Germany).
# (§2) For the assay 50 nl of a 100 fold concentrated solution of the test compound in DMSO was pipetted into a black low volume 384 well microtiter plate (Greiner Bio-One, Frickenhausen, Germany), 2 μl of a solution of Akt2 in assay buffer [50 mM TRIS/HCl pH 7.5, 5 mM MgCl2, 1 mM dithiothreitol, 0.02% (v/v) Triton X-100 (Sigma)] were added and the mixture was incubated for 15 min at 22° C. to allow prebinding of the test compounds to the enzyme before the start of the kinase reaction. Then the kinase reaction was started by the addition of 3 μl of a solution of adenosine-tri-phosphate (ATP, 16.7 μM=>final conc. in the 5 μl assay volume is 10 μM) and substrate (1.67 μM=>final conc. in the 5 μl assay volume is 1 μM) in assay buffer and the resulting mixture was incubated for a reaction time of 60 min at 22° C. The concentration of Akt2 in the assay was adjusted depending of the activity of the enzyme lot and was chosen appropriate to have the assay in the linear range, typical enzyme concentrations were in the range of about 0.2 ng/μl (final conc. in the 5 μl assay volume).
# (§3) The reaction was stopped by the addition of 5 μl of a solution of HTRF detection reagents (200 nM streptavidine-XL665 [Cisbio] and 1.5 nM anti-phosho-Serine antibody [Millipore, cat. #35-001] and 0.75 nM LANCE Eu-W 1024 labeled anti-mouse IgG antibody [Perkin Elmer]) in an aqueous EDTA-solution (100 mM EDTA, 0.1% (w/v) bovine serum albumin in 50 mM HEPES/NaOH pH 7.5).
# (§4) The resulting mixture was incubated 1 h at 22° C. to allow the binding of the biotinylated phosphorylated peptide to the streptavidine-XL665 and the antibodies. Subsequently the amount of phosphorylated substrate was evaluated by measurement of the resonance energy transfer from the anti-mouse-IgG-Eu-Chelate to the streptavidine-XL665. Therefore, the fluorescence emissions at 620 nm and 665 nm after excitation at 350 nm was measured in a TR-FRET reader, e.g. a Rubystar (BMG Labtechnologies, Offenburg, Germany) or a Viewlux (Perkin-Elmer). The ratio of the emissions at 665 nm and at […] was taken as the measure for the amount of phosphorylated substrate. The data were normalised (enzyme reaction without inhibitor=0% inhibition, all other assay components but no enzyme=100% inhibition).
# [2] = molecular target: His-tagged human recombinant kinase full-length Akt1 (Homo sapiens (Human), UniProt P31749); experiment: Akt1 kinase assay (Akt1 TR-FRET assay, Biological Assay 1.0); type: biochemical; details: 10 μM ATP, 1 μM biotinylated peptide substrate, 60 min at 22° C.
# His-tagged human recombinant kinase full-length Akt1, sequence (P31749 whole entry): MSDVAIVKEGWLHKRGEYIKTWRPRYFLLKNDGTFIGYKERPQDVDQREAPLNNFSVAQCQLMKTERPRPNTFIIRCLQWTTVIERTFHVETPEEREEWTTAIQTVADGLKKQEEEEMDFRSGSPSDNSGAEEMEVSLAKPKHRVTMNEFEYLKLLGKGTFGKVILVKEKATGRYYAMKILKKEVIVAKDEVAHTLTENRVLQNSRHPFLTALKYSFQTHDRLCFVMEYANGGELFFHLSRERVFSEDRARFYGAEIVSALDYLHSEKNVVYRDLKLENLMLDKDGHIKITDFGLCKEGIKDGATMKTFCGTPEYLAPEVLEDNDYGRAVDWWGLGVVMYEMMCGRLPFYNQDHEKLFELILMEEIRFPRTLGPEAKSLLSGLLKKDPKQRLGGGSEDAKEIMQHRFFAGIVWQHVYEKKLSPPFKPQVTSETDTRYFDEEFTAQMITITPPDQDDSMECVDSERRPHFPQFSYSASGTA
# From the text: Biological Assay 1.0: Akt1 Kinase Assay
# as §1, with “Akt1 inhibitory activity of compounds of the present invention may be quantified employing the Akt1 TR-FRET assay as described in the following paragraphs. His-tagged” for “His-tagged”, “Akt1” for “Akt2”, “cells” for “cells and activated by PDK1”, “3599).” for “3975).”
# as §2, with “Akt1” for “Akt2”, “0.05” for “0.2”
# as §3
# as §4, with “HTRF” for “TR-FRET”
# His-tagged human recombinant kinase full-length Akt2 activated by PDK1, sequence (P31751 whole entry): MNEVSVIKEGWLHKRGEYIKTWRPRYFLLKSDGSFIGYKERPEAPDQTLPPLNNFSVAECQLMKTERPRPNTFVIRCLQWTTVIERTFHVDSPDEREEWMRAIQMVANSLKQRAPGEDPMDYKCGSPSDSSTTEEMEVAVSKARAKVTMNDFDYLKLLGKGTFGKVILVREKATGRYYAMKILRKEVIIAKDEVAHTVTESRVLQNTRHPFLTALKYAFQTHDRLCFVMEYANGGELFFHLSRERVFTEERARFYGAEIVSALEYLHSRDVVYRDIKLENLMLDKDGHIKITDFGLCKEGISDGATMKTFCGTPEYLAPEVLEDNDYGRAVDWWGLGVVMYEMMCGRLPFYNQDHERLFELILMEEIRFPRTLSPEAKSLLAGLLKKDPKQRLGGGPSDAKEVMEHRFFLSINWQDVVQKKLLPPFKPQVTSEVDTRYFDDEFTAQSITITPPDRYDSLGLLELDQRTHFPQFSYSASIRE
SMILES,IC50 [1] [nM],IC50 [2] [nM]
"Cc1nc2nc(-c3ccc(CN4CCC(c5n[nH]c(-c6ccccn6)n5)C4)cc3)c(-c3ccccc3)cn2n1 (racemic) [Example 24.0, (±)-2-methyl-6-phenyl-5-{4-[3-(5-pyridin-2-yl-1H-[1,2,4]triazol-3-yl)-pyrrolidin-1-ylmethyl]-phenyl}-[1,2,4]triazolo[1,5-a]pyrimidine]",435,44
"c1ccc(-c2cn3ccnc3nc2-c2ccc(CN3CC(c4nnc(-c5ccccn5)[nH]4)C3)cc2)cc1 [Example 1.0, 6-phenyl-7-(4-{[3-(5-pyridin-2-yl-1,2,4-triazol-3-yl)azetidin-1-yl]methyl}phenyl)imidazo[1,2-a]pyrimidine]",< 500,< 50
"Cc1nc2nc(-c3ccc(CN4CC(c5nnc(-c6ccccn6)[nH]5)C4)cc3)c(-c3ccccc3)cn2n1 [Example 2.0, 2-methyl-6-phenyl-5-(4-{[3-(5-pyridin-2-yl-1,2,4-triazol-3-yl)azetidin-1-yl]methyl}phenyl)[1,2,4]triazolo[1,5-a]pyrimidine]",65,23
"Fc1cnc2nc(-c3ccc(CN4CC(c5nnc(-c6ccccn6)[nH]5)C4)cc3)c(-c3ccccc3)cn12 [Example 4.0, 3-fluoro-6-phenyl-7-(4-{[3-(5-pyridin-2-yl-1,2,4-triazol-3-yl)azetidin-1-yl]methyl}phenyl)imidazo[1,2-a]pyrimidine]",< 50,< 50
"Clc1cnc2nc(-c3ccc(CN4CC(c5nnc(-c6ccccn6)[nH]5)C4)cc3)c(-c3ccccc3)cn12 [Example 5.0, 3-Chloro-6-phenyl-7-(4-{[3-(5-pyridin-2-yl-1,2,4-triazol-3-yl)azetidin-1-yl]methyl}phenyl)imidazo[1,2-a]pyrimidine]",11,6
"c1ccc(-c2cn3ccnc3nc2-c2ccc(CN3CCC(c4nc5ccncc5[nH]4)CC3)cc2)cc1 [Example 6.0, 2-{1-[4-(6-phenyl-imidazo[1,2-a]pyrimidin-7-yl)-benzyl]-piperidin-4-yl}-3H-imidazo[4,5-c]pyridine]",1220,157
"c1ccc(-c2cn3ccnc3nc2-c2ccc(CN3CCC(c4nc5cccnc5[nH]4)CC3)cc2)cc1 [Example 7.0, 2-{1-[4-(6-phenyl-imidazo[1,2-a]pyrimidin-7-yl)-benzyl]-piperidin-4-yl}-3H-imidazo[4,5-b]pyridine]",607,56
"N#Cc1ccc2nc(C3CCN(Cc4ccc(-c5nc6nccn6cc5-c5ccccc5)cc4)CC3)[nH]c2c1 [Example 9.0, 2-{1-[4-(6-Phenyl-imidazo[1,2-a]pyrimidin-7-yl)-benzyl]-piperidin-4-yl}-3H-benzimidazole-5-carbonitrile]",426,83
"c1ccc(-c2cn3ccnc3nc2-c2ccc(CN3CCC(c4cnc5ccccc5n4)CC3)cc2)cc1 [Example 10.0, 2-{1-[4-(6-phenyl-imidazo[1,2-a]pyrimidin-7-yl)-benzyl]-piperidine-4-yl}-quinoxaline]",9,4
"N#Cc1ccc2nc(C3CCN(Cc4ccc(-c5nc6ccnn6cc5-c5ccccc5)cc4)CC3)[nH]c2c1 [Example 12.0, 2-{1-[4-(6-phenyl-pyrazolo[1,5-a]pyrimidin-5-yl)-benzyl]-piperidin-4-yl}-3H-benzimidazol-5-carbonitrile]",316,39
"Cc1nc2nc(-c3ccc(CN4CCC(c5nc6ccc(F)cc6[nH]5)CC4)cc3)c(-c3ccccc3)cn2n1 [Example 13.0, 5-{4-[4-(6-fluoro-1H-benzoimidazol-2-yl)-piperidin-1-ylmethyl]-phenyl}-2-methyl-6-phenyl-[1,2,4]triazolo[1,5-a]pyrimidine]",228,112
"Cc1nc2nc(-c3ccc(CN4CCC(c5nc6ccncc6[nH]5)CC4)cc3)c(-c3ccccc3)cn2n1 [Example 14.0, 5-{4-[4-(3H-imidazo[4,5-c]pyridin-2-yl)-piperidin-1-ylmethyl]-phenyl}-2-methyl-6-phenyl-[1,2,4]triazolo[1,5-a]pyrimidine]",5840,3000
"c1ccc(-c2cn3nccc3nc2-c2ccc(CN3CCC(c4nc5cccnc5[nH]4)CC3)cc2)cc1 [Example 16.0, 2-{1-[4-(6-phenyl-pyrazolo[1,5-a]pyrimidin-5-yl)-benzyl]-piperidin-4-yl}-3H-imidazo[4,5-b]pyridine]",1080,42
"FC(F)(F)c1ccc2nc(C3CCN(Cc4ccc(-c5nc6ccnn6cc5-c5ccccc5)cc4)CC3)[nH]c2c1 [Example 17.0, 6-phenyl-5-{4-[4-(6-trifluoromethyl-1H-benzimidazol-2-yl)piperidin-1-ylmethyl]-phenyl}-pyrazolo[1,5-a]pyrimidine]",> 20000,338
"Fc1ccc2nc(C3CCN(Cc4ccc(-c5nc6ccnn6cc5-c5ccccc5)cc4)CC3)[nH]c2c1 [Example 18.0, 5-{4-[4-(6-fluoro-1H-benzimidazol-2-yl)-piperidin-1-ylmethyl]-phenyl}-6-phenyl-pyrazolo[1,5-a]pyrimidine]",1090,42
"Nc1ncnc2c1cnn2C1CCN(Cc2ccc(-c3nc4ccnn4cc3-c3ccccc3)cc2)CC1 [Example 19.0, 1-{1-[4-(6-phenyl-pyrazolo[1,5-a]pyrimidin-5-yl)-benzyl]-piperidin-4-yl}-1H-pyrazolo[3,4-d]pyrimidin-4-ylamine]",332,25
"Cc1nc2nc(-c3ccc(CN4CCC(c5nc6ccc(C#N)cc6[nH]5)CC4)cc3)c(-c3ccccc3)cn2n1 [Example 20.0, 2-{1-[4-(2-methyl-6-phenyl-[1,2,4]triazolo[1,5-a]pyrimidin-5-yl)benzyl]-piperidin-4-yl}-3H-benzimidazole-5-carbonitrile]",1010,525
"Cc1nc2nc(-c3ccc(CN4CCC(c5nc6ccc(C(F)(F)F)cc6[nH]5)CC4)cc3)c(-c3ccccc3)cn2n1 [Example 21.0, 2-methyl-6-phenyl-5-{4-[4-(6-trifluoromethyl-1H-benzimidazol-2-yl)-piperidin-1-ylmethyl]-phenyl}-[1,2,4]-triazolo[1,5-a]pyrimidine]",2500,1450
"CNc1nc2nc(-c3ccc(CN4CC(c5n[nH]c(-c6ccccn6)n5)C4)cc3)c(-c3ccccc3)cn2n1 [Example 43.0, methyl-(6-phenyl-5-{4-[3-(5-pyridin-2-yl-1H-[1,2,4]triazol-3-yl)azetidin-1-ylmethyl]-phenyl}-[1,2,4]triazolo[1,5-a]pyrimidin-2-yl)-amine]",–,63
